Measured values as given in ChEMBL document CHEMBL6083263, “The Discovery of MORF-627, a Highly Selective Conformationally-Biased Zwitterionic Integrin αvβ6 Inhibitor for Fibrosis” (J Med Chem, 2024).

How the values were obtained:
Integrin alpha-V/beta-6 [1] = molecular target: T1, Integrin alpha-V/beta-6 (Homo sapiens, UniProt P06756+P18564); assay: Displacement of fluorescein labeled GRGDLGRL from human Integrin alphaVbeta6 preincubated for 15 mins followed by fluorescein labeled GRGDLGRL addition and measured after 1 hr by fluorescence polarization assay; type: protein-complex assay
T1 sequence (P06756 31-889 limits assumed): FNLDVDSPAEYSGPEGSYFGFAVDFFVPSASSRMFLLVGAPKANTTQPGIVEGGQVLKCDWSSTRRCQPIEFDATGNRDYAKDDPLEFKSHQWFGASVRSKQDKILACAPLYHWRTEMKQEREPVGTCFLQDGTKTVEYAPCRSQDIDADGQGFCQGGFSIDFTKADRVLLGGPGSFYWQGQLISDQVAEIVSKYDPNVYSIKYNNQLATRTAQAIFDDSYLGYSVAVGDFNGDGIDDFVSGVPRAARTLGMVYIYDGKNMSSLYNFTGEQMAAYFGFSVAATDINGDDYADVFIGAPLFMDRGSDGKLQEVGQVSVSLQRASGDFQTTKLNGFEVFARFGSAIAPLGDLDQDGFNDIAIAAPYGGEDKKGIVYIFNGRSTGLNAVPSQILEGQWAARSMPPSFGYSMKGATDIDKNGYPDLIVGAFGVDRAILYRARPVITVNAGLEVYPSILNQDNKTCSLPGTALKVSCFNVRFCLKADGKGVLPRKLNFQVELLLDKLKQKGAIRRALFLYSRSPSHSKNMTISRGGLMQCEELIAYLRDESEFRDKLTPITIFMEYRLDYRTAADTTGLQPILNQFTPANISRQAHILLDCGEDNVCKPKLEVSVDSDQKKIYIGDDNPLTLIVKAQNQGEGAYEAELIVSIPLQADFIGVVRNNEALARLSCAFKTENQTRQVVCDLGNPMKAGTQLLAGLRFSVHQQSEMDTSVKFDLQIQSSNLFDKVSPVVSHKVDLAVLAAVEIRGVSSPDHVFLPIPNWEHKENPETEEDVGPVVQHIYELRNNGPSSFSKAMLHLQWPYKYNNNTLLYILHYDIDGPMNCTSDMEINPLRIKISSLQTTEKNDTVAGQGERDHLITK
T1 sequence (P06756 891-1048 limits assumed): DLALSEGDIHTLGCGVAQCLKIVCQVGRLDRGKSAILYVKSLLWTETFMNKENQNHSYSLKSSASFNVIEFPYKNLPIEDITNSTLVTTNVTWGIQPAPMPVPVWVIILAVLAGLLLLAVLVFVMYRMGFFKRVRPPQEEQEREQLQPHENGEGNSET
T1 sequence (P18564 22-788 limits assumed): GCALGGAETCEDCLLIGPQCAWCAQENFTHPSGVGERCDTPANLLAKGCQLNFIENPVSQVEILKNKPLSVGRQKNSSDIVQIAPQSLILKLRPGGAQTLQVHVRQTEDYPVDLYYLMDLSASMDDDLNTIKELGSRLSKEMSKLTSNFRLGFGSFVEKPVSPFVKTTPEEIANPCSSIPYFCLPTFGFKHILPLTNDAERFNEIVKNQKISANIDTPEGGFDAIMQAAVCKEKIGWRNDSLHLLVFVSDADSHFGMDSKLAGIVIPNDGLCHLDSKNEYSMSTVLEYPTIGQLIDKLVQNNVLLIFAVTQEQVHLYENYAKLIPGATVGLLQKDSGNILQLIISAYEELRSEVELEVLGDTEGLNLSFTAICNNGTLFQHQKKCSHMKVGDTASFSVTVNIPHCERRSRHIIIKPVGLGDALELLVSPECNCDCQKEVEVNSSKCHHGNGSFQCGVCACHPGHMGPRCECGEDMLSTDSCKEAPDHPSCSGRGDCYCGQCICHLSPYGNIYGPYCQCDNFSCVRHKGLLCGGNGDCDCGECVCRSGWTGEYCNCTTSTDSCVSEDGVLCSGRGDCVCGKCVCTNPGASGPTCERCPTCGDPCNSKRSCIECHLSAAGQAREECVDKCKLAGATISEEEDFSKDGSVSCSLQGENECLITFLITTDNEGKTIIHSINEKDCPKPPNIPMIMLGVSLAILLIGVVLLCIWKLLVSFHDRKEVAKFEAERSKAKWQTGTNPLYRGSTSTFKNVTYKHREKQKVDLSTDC

Integrin alpha-V/beta-1 = Integrin alpha-V/beta-1 (Homo sapiens, UniProt P05556+P06756); assay: Displacement of fluorescein labeled ACRGDGWC from human Integrin alphaVbeta1 preincubated for 15 mins followed by fluorescein labeled ACRGDGWC addition and measured after 1 hr by fluorescence polarization assay; type: protein-complex assay
Chain of Integrin alpha-V/beta-1 (P05556 21-798 limits assumed): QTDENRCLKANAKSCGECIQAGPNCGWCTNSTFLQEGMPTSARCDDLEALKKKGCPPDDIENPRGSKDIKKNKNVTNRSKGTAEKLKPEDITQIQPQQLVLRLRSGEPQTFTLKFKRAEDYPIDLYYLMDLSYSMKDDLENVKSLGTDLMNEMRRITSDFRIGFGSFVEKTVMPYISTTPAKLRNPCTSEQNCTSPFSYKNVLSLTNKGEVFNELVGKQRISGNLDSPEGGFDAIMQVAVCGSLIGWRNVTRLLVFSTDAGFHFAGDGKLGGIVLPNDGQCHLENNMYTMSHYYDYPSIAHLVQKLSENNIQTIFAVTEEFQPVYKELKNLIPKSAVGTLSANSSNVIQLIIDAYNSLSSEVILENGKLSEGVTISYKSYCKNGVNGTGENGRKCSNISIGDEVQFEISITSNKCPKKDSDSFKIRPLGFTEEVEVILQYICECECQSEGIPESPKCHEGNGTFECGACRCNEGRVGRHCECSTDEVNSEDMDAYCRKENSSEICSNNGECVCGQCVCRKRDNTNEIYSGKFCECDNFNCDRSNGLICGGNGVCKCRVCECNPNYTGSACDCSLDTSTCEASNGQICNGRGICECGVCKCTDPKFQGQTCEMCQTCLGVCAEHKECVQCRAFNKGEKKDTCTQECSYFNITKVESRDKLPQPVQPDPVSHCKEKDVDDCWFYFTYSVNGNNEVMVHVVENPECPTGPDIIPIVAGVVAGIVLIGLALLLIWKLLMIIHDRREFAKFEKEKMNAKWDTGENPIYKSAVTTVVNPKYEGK
Chain of Integrin alpha-V/beta-1 (P06756 31-889 limits assumed): as the sequence (P06756 31-889 limits assumed) above
Chain of Integrin alpha-V/beta-1 (P06756 891-1048 limits assumed): as the sequence (P06756 891-1048 limits assumed) above

Integrin alpha-V/beta-8 = Integrin alpha-V/beta-8 (Homo sapiens, UniProt P06756+P26012); assay: Displacement of fluorescein labeled GRGDLGRL from human Integrin alphaVbeta8 preincubated for 15 mins followed by fluorescein labeled GRGDLGRL addition and measured after 1 hr by fluorescence polarization assay; type: protein-complex assay
Chain of Integrin alpha-V/beta-8 (P06756 31-889 limits assumed): as the sequence (P06756 31-889 limits assumed) above
Chain of Integrin alpha-V/beta-8 (P06756 891-1048 limits assumed): as the sequence (P06756 891-1048 limits assumed) above
Chain of Integrin alpha-V/beta-8 (P26012 43-769 limits assumed): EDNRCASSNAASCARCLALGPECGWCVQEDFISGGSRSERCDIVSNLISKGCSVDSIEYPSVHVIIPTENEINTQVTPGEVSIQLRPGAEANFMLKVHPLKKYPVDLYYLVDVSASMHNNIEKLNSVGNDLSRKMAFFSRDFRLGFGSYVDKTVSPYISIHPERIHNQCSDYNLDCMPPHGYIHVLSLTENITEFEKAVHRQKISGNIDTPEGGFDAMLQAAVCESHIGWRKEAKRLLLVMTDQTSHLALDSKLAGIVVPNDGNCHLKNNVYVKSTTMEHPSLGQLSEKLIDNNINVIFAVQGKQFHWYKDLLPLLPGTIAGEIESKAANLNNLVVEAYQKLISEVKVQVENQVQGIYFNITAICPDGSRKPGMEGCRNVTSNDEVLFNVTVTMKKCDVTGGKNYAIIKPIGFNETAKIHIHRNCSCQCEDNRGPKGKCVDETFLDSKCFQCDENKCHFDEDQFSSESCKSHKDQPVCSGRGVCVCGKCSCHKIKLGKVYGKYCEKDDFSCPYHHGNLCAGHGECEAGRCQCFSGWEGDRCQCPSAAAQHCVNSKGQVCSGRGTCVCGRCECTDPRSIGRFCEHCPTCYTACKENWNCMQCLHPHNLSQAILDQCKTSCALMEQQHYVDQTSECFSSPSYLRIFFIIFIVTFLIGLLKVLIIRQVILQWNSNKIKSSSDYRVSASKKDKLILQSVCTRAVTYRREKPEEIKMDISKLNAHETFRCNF

[2] = Octanol/water partition coefficient, logD of the compound; type: physicochemical
Integrin alpha-V/beta-6 [3] = molecular target: T1, Integrin alpha-V/beta-6; assay: Binding affinity to human Integrin alphaVbeta6 overexpressed in HEK293 cells incubated for 15 mins in presence of human serum by flow cytometry assay; type: cell-based
[4] = Clearance in Sprague-Dawley rat at 1 mg/kg, iv measured upto 24 hrs by LC/MS-MS analysis; type: ADME, organism-based; conditions: in vivo
[5] = Volume of distribution at steady state in Sprague-Dawley rat at 1 mg/kg, iv measured upto 24 hrs by LC/MS-MS analysis; type: ADME, organism-based; conditions: in vivo, read-out: Vdss
[6] = Half-life in Sprague-Dawley rat at 1 mg/kg, iv measured upto 24 hrs by LC/MS-MS analysis; type: ADME, organism-based; conditions: in vivo
Homo sapiens [7] = species on record: Homo sapiens; assay: Selectivity ratio of IC50 for displacement of fluorescein labeled ACRGDGWC from human Integrin alphaVbeta1 to IC50 for displacement of fluorescein labeled GRGDLGRL from human Integrin alphaVbeta6
Homo sapiens [8] = species on record: Homo sapiens; assay: Selectivity ratio of IC50 for displacement of fluorescein labeled GRGDLGRL from human Integrin alphaVbeta8 to IC50 for displacement of fluorescein labeled GRGDLGRL from human Integrin alphaVbeta6
[9] = Oral bioavailability in Sprague-Dawley rat at 10 mg/kg measured upto 24 hrs by LC/MS-MS analysis; type: ADME, organism-based; conditions: in vivo

Row | SMILES | IC50 (Integrin alpha-V/beta-6 [1]) | IC50 (Integrin alpha-V/beta-1) | IC50 (Integrin alpha-V/beta-8) | logD [2] | IC50 (Integrin alpha-V/beta-6 [3]) | clearance [4] | Vd [5] | half-life [6] | Ratio IC50 (Homo sapiens [7]) | Ratio IC50 (Homo sapiens [8]) | bioavailability [9]
1 | O=C(O)[C@H](c1ccccc1C1CC1)N1C[C@@H](F)[C@@H](OCCCCc2ccc3c(n2)NCCC3)C1 | 8.5 nM | 130 nM | 140 nM | 1.4 | – | – | – | – | – | – | –
2 | O=C(O)[C@H](c1ccccc1C1CC1)N1CC[C@@H](Oc2ccc(Cc3ccc4c(n3)NCCC4)cc2)C1 | 0.7 nM | 27 nM | 7.7 nM | 2.4 | – | – | – | – | – | – | –
3 | O=C(O)[C@H](c1cc(F)ccc1[C@@H]1CCOC1)N1CC[C@@H](OCCCCc2ccc3c(n2)NCCC3)C1 | 4.1 nM | 170 nM | 83 nM | 1 | – | – | – | – | – | – | –
4 | O=C(O)[C@H](c1cc(F)ccc1[C@H]1CCCO1)N1CC[C@@H](OCCCCc2ccc3c(n2)NCCC3)C1 | 12 nM | 193 nM | 155 nM | 1.4 | – | – | – | – | – | – | –
5 | O=C(O)[C@H](c1cc(F)ccc1[C@H]1CCOC1)N1CC[C@@H](OCCCCc2ccc3c(n2)NCCC3)C1 | 2.8 nM | 110 nM | 190 nM | 1.1 | 90 nM | – | – | – | – | – | –
6 | O=C(O)[C@H](c1ccccc1C1CCCOC1)N1CC[C@@H](OCCCCc2ccc3c(n2)NCCC3)C1 (some centres not stated) | 25 nM | 300 nM | 180 nM | 1.2 | – | – | – | – | – | – | –
7 | O=C(O)[C@H](c1cccc(C2CC2)c1)N1CC[C@@H](OCCCCc2ccc3c(n2)NCCC3)C1 | 13 nM | 1100 nM | 180 nM | 1.7 | – | – | – | – | – | – | –
8 | CC1(C)CC[C@@H](c2ccccc2[C@@H](C(=O)O)N2CC[C@@H](OCCCCc3ccc4c(n3)NCCC4)C2)OC1 | 0.8 nM | 830 nM | 430 nM | 1.5 | 35 nM | 50 mL/min/kg | 2.6 L/kg | 1.2 h | 1100 | 560 | –
9 | O=C(O)[C@H](c1cc(F)ccc1[C@@H]1CCCCO1)N1CC[C@@H](OCCCCc2ccc3c(n2)NCCC3)C1 | 1.6 nM | 87 nM | 74 nM | – | 16 nM | 29 mL/min/kg | 2.7 L/kg | 1.5 h | > 50 | > 50 | 38%
10 | O=C(O)[C@H](c1ccccc1C1CC1)N1CC[C@@H](OCCCc2ccc3c(n2)NCCC3)C1 | 8.6 nM | 250 nM | 140 nM | 1.2 | – | – | – | – | – | – | –
11 | O=C(O)[C@H](c1ccccc1C1CC1)N1CC[C@@H](n2cc(CCc3ccc4c(n3)NCCC4)cn2)C1 | 33 nM | 56 nM | 100 nM | 1.6 | – | – | – | – | – | – | –
12 | CC1(C)CCO[C@H](c2ccccc2[C@@H](C(=O)O)N2CC[C@@H](OCCCCc3ccc4c(n3)NCCC4)C2)C1 | 1.6 nM | 570 nM | 410 nM | 2.3 | 213 nM | – | – | – | – | – | –
13 | O=C(O)[C@H](c1cc(F)ccc1[C@@H]1CCCO1)N1CC[C@@H](OCCCCc2ccc3c(n2)NCCC3)C1 | 1.9 nM | 92 nM | 134 nM | 1.5 | 21 nM | 13 mL/min/kg | 1.2 L/kg | 1.5 h | > 50 | > 50 | 41%
14 | CC1(C)CC[C@@H](c2ccc(F)cc2[C@@H](C(=O)O)N2CC[C@@H](OCCCCc3ccc4c(n3)NCCC4)C2)OC1 | 0.5 nM | 690 nM | 140 nM | 2.6 | 41 nM | 30 mL/min/kg | 2.4 L/kg | 1.2 h | – | – | 25%
15 | CC1(C)CCCC(c2ccccc2[C@@H](C(=O)O)N2CC[C@@H](OCCCCc3ccc4c(n3)NCCC4)C2)O1 (some centres not stated) | 4.6 nM | 72 nM | 150 nM | 2.1 | – | – | – | – | – | – | –
16 | O=C(O)[C@H](c1ccccc1C1CC1)N1CC[C@@H](OCCCCc2ccc3c(n2)NCCC3)C1 | 4.6 nM | 96 nM | 55 nM | 1.4 | – | – | – | – | – | – | –
17 | O=C(O)[C@H](c1cc(F)ccc1[C@H]1CCCCO1)N1CC[C@@H](OCCCCc2ccc3c(n2)NCCC3)C1 | 8 nM | 130 nM | 130 nM | 1.7 | – | – | – | – | – | – | –
18 | O=C(O)CN1CC[C@H](C(=O)NCCCc2ccc3c(n2)NCCC3)C1 | 4300 nM | 1600 nM | – | – | – | – | – | – | – | – | –
19 | O=C(O)[C@H](c1cc(F)ccc1C1CCOCC1)N1CC[C@@H](OCCCCc2ccc3c(n2)NCCC3)C1 | 7.8 nM | 120 nM | 100 nM | 1.3 | 128 nM | – | – | – | – | – | –
20 | O=C(NCCCc1ccc2c(n1)NCCC2)C1CCN([C@H](C(=O)O)c2ccccc2)CC1 | 4100 nM | 14000 nM | – | 0.2 | – | – | – | – | – | – | –
21 | O=C(O)CN1CC[C@@H](C(=O)NCCCc2ccc3c(n2)NCCC3)C1 | 790 nM | 4000 nM | – | -0.6 | – | – | – | – | – | – | –
22 | O=C(NCCCc1ccc2c(n1)NCCC2)[C@@H]1CCN([C@H](C(=O)O)c2ccccc2)C1 | 37 nM | 1900 nM | 78 nM | 0.4 | – | – | – | – | > 50 | – | –
23 | O=C(O)CN1CCC(C(=O)NCCCc2ccc3c(n2)NCCC3)CC1 | 1500 nM | 650 nM | 370 nM | -0.5 | – | – | – | – | – | – | –
24 | O=C(O)[C@H](c1ccccc1C1CC1)N1CC[C@@H](OCCCCCc2ccc3c(n2)NCCC3)C1 | 4.4 nM | 94 nM | 17 nM | 1.8 | – | – | – | – | – | – | –
25 | O=C(O)[C@H](c1ccc(C2CC2)cc1)N1CC[C@@H](OCCCCc2ccc3c(n2)NCCC3)C1 | 12 nM | 1600 nM | 300 nM | 1.7 | – | – | – | – | – | – | –
26 | O=C(O)[C@H](c1cc(F)ccc1C1CC1)N1CC[C@@H](OCCCCc2ccc3c(n2)NCCC3)C1 | 4 nM | 92 nM | 38 nM | 1.7 | – | – | – | – | – | – | –
27 | O=C(NCCCc1ccc2c(n1)NCCC2)[C@@H]1CCN([C@@H](C(=O)O)c2ccccc2)C1 | 93 nM | 9500 nM | 130 nM | – | – | – | – | – | – | – | –
28 | O=C(NCCCc1ccc2c(n1)NCCC2)C1CCN([C@@H](C(=O)O)c2ccccc2)CC1 | 16000 nM | 30000 nM | – | – | – | – | – | – | – | – | –
29 | O=C(O)[C@H](c1ccccc1)N1CC[C@@H](OCCCCc2ccc3c(n2)NCCC3)C1 | 80 nM | 3900 nM | 1100 nM | 0.7 | – | – | – | – | – | – | –
